Assay results: PubChem BioAssay (NCI)
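Each compound was tested at five concentrations against cells in 96-well plates for 48 hours. Abbreviation: GI50, concentration required for 50% inhibition of growth. TGI: concentration producing complete growth inhibition.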

Legend:
Test in all cases: growth of human tumour cells (NCI), 48 h
A498 renal = test system: A498 renal
SW-620 colon = test system: SW-620 colon
DU-145 prostate = test system: DU-145 prostate
HL-60(TB) leukemia = test system: HL-60(TB) leukemia
UACC-257 melanoma = test system: UACC-257 melanoma
BT-549 breast = test system: BT-549 breast
SK-MEL-28 melanoma = test system: SK-MEL-28 melanoma
OVCAR-3 ovarian = test system: OVCAR-3 ovarian
HCT-15 colon = test system: HCT-15 colon
NCI-H522 lung = test system: NCI-H522 lung
NCI-H226 lung = test system: NCI-H226 lung
A549 NSCLC = test system: A549 NSCLC
HCC-2998 colon = test system: HCC-2998 colon
CCRF-CEM leukemia = test system: CCRF-CEM leukemia
UACC-62 melanoma = test system: UACC-62 melanoma
OVCAR-8 ovarian = test system: OVCAR-8 ovarian
SK-MEL-5 melanoma = test system: SK-MEL-5 melanoma
NCI-H460 lung = test system: NCI-H460 lung
HCT-116 colon = test system: HCT-116 colon
HOP-62 NSCLC = test system: HOP-62 NSCLC
CAKI-1 renal = test system: CAKI-1 renal
IGROV1 ovarian = test system: IGROV1 ovarian
UO-31 renal = test system: UO-31 renal
NCI/ADR-RES ovarian = test system: NCI/ADR-RES ovarian
ACHN renal = test system: ACHN renal
SF-295 CNS = test system: SF-295 CNS
RPMI-8226 leukemia = test system: RPMI-8226 leukemia
SNB-19 CNS = test system: SNB-19 CNS
HS 578T breast = test system: HS 578T breast
M14 melanoma = test system: M14 melanoma
OVCAR-4 ovarian = test system: OVCAR-4 ovarian
SN12C renal = test system: SN12C renal
EKVX NSCLC = test system: EKVX NSCLC
K-562 leukemia = test system: K-562 leukemia
OVCAR-5 ovarian = test system: OVCAR-5 ovarian
MALME-3M melanoma = test system: MALME-3M melanoma
SF-539 CNS = test system: SF-539 CNS
MDA-MB-231 breast = test system: MDA-MB-231 breast
COLO 205 colon = test system: COLO 205 colon
SNB-75 CNS = test system: SNB-75 CNS
MOLT-4 leukemia = test system: MOLT-4 leukemia
RXF 393 renal = test system: RXF 393 renal
PC-3 prostate = test system: PC-3 prostate
786-0 renal = test system: 786-0 renal
MCF7 breast = test system: MCF7 breast
SF-268 CNS = test system: SF-268 CNS
LOX IMVI melanoma = test system: LOX IMVI melanoma
U251 CNS = test system: U251 CNS
NCI-H23 lung = test system: NCI-H23 lung
SK-MEL-2 melanoma = test system: SK-MEL-2 melanoma
HT29 colon = test system: HT29 colon
TK-10 renal = test system: TK-10 renal
SK-OV-3 ovarian = test system: SK-OV-3 ovarian
HOP-92 NSCLC = test system: HOP-92 NSCLC
SR leukemia = test system: SR leukemia
MDA-MB-435 = test system: MDA-MB-435
KM12 colon = test system: KM12 colon
T-47D breast = test system: T-47D breast

COc1ccc(/C=C2\CCCC3=C2NC(N)=NC3c2ccc(OC)c(OC)c2)cc1OC (stereo unspecified)
GI50 (A498 renal): 13.1 µM
TGI (A498 renal): > 82.6 µM
GI50 (SW-620 colon): 4.58 µM
TGI (SW-620 colon): > 50.3 µM
GI50 (DU-145 prostate): 4.98 µM
TGI (DU-145 prostate): > 100 µM
GI50 (HL-60(TB) leukemia): 4.52 µM
TGI (HL-60(TB) leukemia): > 100 µM
GI50 (UACC-257 melanoma): 5 µM
TGI (UACC-257 melanoma): > 81.1 µM
GI50 (BT-549 breast): 3.62 µM
TGI (BT-549 breast): > 100 µM
GI50 (SK-MEL-28 melanoma): 21.6 µM
TGI (SK-MEL-28 melanoma): > 100 µM
GI50 (OVCAR-3 ovarian): 5.41 µM
TGI (OVCAR-3 ovarian): > 100 µM
GI50 (HCT-15 colon): 9.68 µM
TGI (HCT-15 colon): > 100 µM
GI50 (NCI-H522 lung): 7 µM
TGI (NCI-H522 lung): 36.8 µM
GI50 (NCI-H226 lung): 3.02 µM
TGI (NCI-H226 lung): 20.2 µM
GI50 (A549 NSCLC): 33.2 µM
TGI (A549 NSCLC): > 100 µM
GI50 (HCC-2998 colon): > 100 µM
TGI (HCC-2998 colon): > 100 µM
GI50 (CCRF-CEM leukemia): 2.42 µM
TGI (CCRF-CEM leukemia): > 100 µM
GI50 (UACC-62 melanoma): 10.9 µM
TGI (UACC-62 melanoma): > 100 µM
GI50 (OVCAR-8 ovarian): 2.08 µM
TGI (OVCAR-8 ovarian): > 100 µM
GI50 (SK-MEL-5 melanoma): 3.48 µM
TGI (SK-MEL-5 melanoma): > 100 µM
GI50 (NCI-H460 lung): 25.2 µM
TGI (NCI-H460 lung): > 100 µM
GI50 (HCT-116 colon): 1.28 µM
TGI (HCT-116 colon): 8.64 µM
GI50 (HOP-62 NSCLC): 4.04 µM
TGI (HOP-62 NSCLC): > 66.9 µM
GI50 (CAKI-1 renal): 4.11 µM
TGI (CAKI-1 renal): > 100 µM
GI50 (IGROV1 ovarian): 28.9 µM
TGI (IGROV1 ovarian): > 100 µM
GI50 (UO-31 renal): 11.8 µM
TGI (UO-31 renal): > 57.1 µM
GI50 (NCI/ADR-RES ovarian): 1.93 µM
TGI (NCI/ADR-RES ovarian): > 100 µM
GI50 (ACHN renal): 4.14 µM
TGI (ACHN renal): > 76.2 µM
GI50 (SF-295 CNS): 8.69 µM
TGI (SF-295 CNS): > 100 µM
GI50 (RPMI-8226 leukemia): 0.837 µM
TGI (RPMI-8226 leukemia): 15.4 µM
GI50 (SNB-19 CNS): > 88.7 µM
TGI (SNB-19 CNS): > 100 µM
GI50 (HS 578T breast): 21.5 µM
TGI (HS 578T breast): > 100 µM
GI50 (M14 melanoma): 6.25 µM
TGI (M14 melanoma): > 73.2 µM
GI50 (OVCAR-4 ovarian): 5.2 µM
TGI (OVCAR-4 ovarian): > 100 µM
GI50 (SN12C renal): > 39.6 µM
TGI (SN12C renal): > 100 µM
GI50 (EKVX NSCLC): 39.7 µM
TGI (EKVX NSCLC): > 100 µM
GI50 (K-562 leukemia): 6.17 µM
TGI (K-562 leukemia): > 100 µM
GI50 (OVCAR-5 ovarian): > 54.5 µM
TGI (OVCAR-5 ovarian): > 100 µM
GI50 (MALME-3M melanoma): 23.7 µM
TGI (MALME-3M melanoma): > 70.2 µM
GI50 (SF-539 CNS): 24.4 µM
TGI (SF-539 CNS): > 100 µM
GI50 (MDA-MB-231 breast): 13.2 µM
TGI (MDA-MB-231 breast): > 100 µM
GI50 (COLO 205 colon): 4.8 µM
TGI (COLO 205 colon): > 100 µM
GI50 (SNB-75 CNS): 2.41 µM
TGI (SNB-75 CNS): 13.8 µM
GI50 (MOLT-4 leukemia): 4.04 µM
TGI (MOLT-4 leukemia): > 100 µM
GI50 (RXF 393 renal): 3.96 µM
TGI (RXF 393 renal): 24.2 µM
GI50 (PC-3 prostate): 20.4 µM
TGI (PC-3 prostate): > 100 µM
GI50 (786-0 renal): 14.2 µM
TGI (786-0 renal): > 100 µM
GI50 (MCF7 breast): 1.89 µM
TGI (MCF7 breast): > 100 µM
GI50 (SF-268 CNS): 6.9 µM
TGI (SF-268 CNS): > 100 µM
GI50 (LOX IMVI melanoma): 4.63 µM
TGI (LOX IMVI melanoma): 41.1 µM
GI50 (U251 CNS): 2.53 µM
TGI (U251 CNS): > 91.9 µM
GI50 (NCI-H23 lung): 7.33 µM
TGI (NCI-H23 lung): > 100 µM
GI50 (SK-MEL-2 melanoma): 9.59 µM
TGI (SK-MEL-2 melanoma): 81.9 µM
GI50 (HT29 colon): 7.75 µM
TGI (HT29 colon): > 100 µM
GI50 (TK-10 renal): 4.68 µM
TGI (TK-10 renal): 27.9 µM
GI50 (SK-OV-3 ovarian): 13.4 µM
TGI (SK-OV-3 ovarian): > 100 µM
GI50 (HOP-92 NSCLC): 2.61 µM
TGI (HOP-92 NSCLC): 17.1 µM
GI50 (SR leukemia): 0.915 µM
TGI (SR leukemia): 22.6 µM
GI50 (MDA-MB-435): 1.43 µM
TGI (MDA-MB-435): > 100 µM
GI50 (KM12 colon): 6.87 µM
TGI (KM12 colon): > 100 µM
GI50 (T-47D breast): 6.61 µM
TGI (T-47D breast): > 60.5 µM
